Key:
SiHa-F3 cells [1] = assay: Tumor cell migration in a Boyden chamber; format: cell-based, human; settings: for migration of the cancer cells (% of the control): Boyden chamber, 16 h, 100 nM to 1 mM
Method: Tests of cell migration and of survival of the treated cells were carried out with a model of super-invasive tumor cells obtained from a human cervical adenocarcinoma cell line, SiHa. The selection of the super-invasive SiHa-F3 cells (F3 on the graphs) was carried out after three consecutive invasions in vitro in permeable supports of Transwell® type coated with Matrigel® (Porporato P E et al., Cell Rep 2014, 8:754-766). […] The actual migration of the tumor cells was measured in a Boyden chamber with 50 000 cells per well and 0.15% of fetal bovine serum (FBS) used as chemoattractant. The pore diameters of the porous membrane separating the two compartments of the Boyden chamber were fixed at 8 μm. After 16 hours of migration, the cells were first fixed with methanol for 3 min and then stained with crystal violet. The culture medium used was DMEM 4.5 g/l of glucose, GlutaMAX®, 1% of a solution of penicillin/streptomycin and 10% of fetal bovine serum. Cell migration measurements: A 48-well reusable Boyden chamber (Neuroprobe) was used according to the manufacturer's instructions. Briefly, medium containing 0.15% of fetal bovine serum served as chemoattractant in the lower compartment, a polycarbonate membrane pierced with pores 8 μm in diameter separated the two compartments, and 50 000 SiHa-F3 cells in suspension in the presence of the indicated compounds were introduced into the upper compartment. The migration of the cells was quantified after an overnight period (16 h). The cells, having migrated, were fixed for 3 min in methanol, stained with 0.23% crystal violet for 30 min, and counted on photographs taken at a magnification of ×2.5 using an inverted-phase microscope (Axiovert and Mrc camera, Zeiss). […] Results were expressed as % of the control.

[2] = test system: B16F10 murine melanoma cells; assay: Model of experimental lung metastases: pretreated B16F10 cells injected into the caudal vein; format: in vivo, C57BL/6 mice; settings: B16F10 cells pretreated with rotenone 10 nM + 10 μM compound, 14 days after injection
Description: The B16F10 tumor cells come from the ATCC collection. The male 6- or 7-week-old C57BL/6 mice were acquired from the Janvier laboratories, and the protocols were applied with the agreement of the UCL ethics committee and while adhering to Belgian laws relating to animal care. Model of experimental metastases: the B16F10 cells were pretreated with DMSO (0.5%, rotenone carrier, negative control) or rotenone (respiratory chain complex I inhibitor and mitochondrial superoxide inducer as described in Porporato P E et al., Cell Rep 2014, 8:754-766, positive control), alone or in combination with the indicated compounds for 6 h. The cells were then detached, counted and resuspended in a proportion of 10×10^6 cells/ml in HBSS without calcium or magnesium. 10^6 cells (i.e. 100 μl of the suspension) were then injected into the caudal vein of C57BL/6 mice. 14 days after injection of the cells, the mice were sacrificed, the lungs were isolated and the metastases (spots positive for melanin) were counted under a dissection microscope.

melanoma cells = settings: mice having received cancer cells by intravenous injection; cited from earlier work
[3] = compared with epigallocatechin-3-gallate (EGCG); cited from earlier work
SiHa-F3 cells [4] = assay: Level of reactive oxygen species (ROSs), DCFDA technique; format: cell-based, human; settings: 1 μM, 60 minutes of pretreatment
Method: Moreover, an evaluation of the impact of the products tested on the level of reactive oxygen species (ROSs) observed was carried out according to the DCFDA technique after 60 minutes of pretreatment of the SiHa-F3 metastatic progenitor cells with the products tested. Measurement of total cell ROSs: 20 000 SiHa-F3 cells were seeded before being treated for 1 h with the compounds indicated. The cells were then incubated for 30 min at 37° C. in a 1 μM solution of H2-DCFDA (Invitrogen) in HBSS containing 10 mM of HEPES, before measurement of the absorbance at 535 nm (Victor X4 spectrophotometer, Perkin Elmer).

SiHa-F3 cells [5] = assay: Cell survival of SiHa-F3 tumor cells (crystal violet or MTT); format: cell-based, human; settings: 1 μM
Method: Tests of cell migration and of survival of the treated cells were carried out with a model of super-invasive tumor cells obtained from a human cervical adenocarcinoma cell line, SiHa. The selection of the super-invasive SiHa-F3 cells (F3 on the graphs) was carried out after three consecutive invasions in vitro in permeable supports of Transwell® type coated with Matrigel® (Porporato P E et al., Cell Rep 2014, 8:754-766).
The cell survival, in order to exclude any toxic effect of the products tested, was estimated either on the basis of the quantification of the cells stained with crystal violet, or by measuring the mitochondrial succinate dehydrogenase (SDH) activity on the reduction of the MTT tetrazolium salt (suspension of formazan obtained in DMSO and measurement of absorbance at 570 nm).
Measurement of cell viability: 20 000 SiHa-F3 cells were seeded and treated with the indicated compounds overnight (16 h). The cells were then fixed for 3 min with methanol, stained with 0.23% crystal violet, and resuspended in DMSO in order to measure the absorbance at 595 nm (Victor X4 spectrophotometer, Perkin Elmer); or alternatively incubated for 3 h at 37° C. in a saturating solution of MTT in HBSS containing 10 mM of HEPES, and resuspended in DMSO in order to measure the absorbance at 630 nm (Victor X4 spectrophotometer, Perkin Elmer). […]

O=C(O[C@@H]1Cc2c(O)cc(O)cc2O[C@@H]1c1cc(O)c(O)c(O)c1)c1cc(O)c(O)c(O)c1 [epigallocatechin gallate]
migration of the cancer cells (% of the control) (SiHa-F3 cells [1]): inhibit the migration of the cancer cells
formation of lung metastases [2]: not Epigallocatechin Gallate Reduces the Formation of Lung Metastases

Oc1cc(O)c2c(c1)O[C@H](c1ccc(O)c(O)c1)[C@@H](O)C2 [(+)-catechin]
decrease in the number of tumor cells migrating from one compartment to the other of the Boyden cell (SiHa-F3 cells [1]; 1 μM, 16 hours of migration): does not however make it possible to significantly decrease
migration of the cancer cells (% of the control) (SiHa-F3 cells [1]): not the (+)-catechin, inhibit the migration of the cancer cells
melanoma cell invasion (melanoma cells): inhibited
anti-proliferative effect [3]: negligible
reduction in the level of reactive oxygen species (ROSs) produced by the cells (SiHa-F3 cells [4]): no impact
survival of the tumor cells (SiHa-F3 cells [5]): does not affect the survival of the tumor cells

Reference: patent publication US20180008572A1, “ANTIMETASTATIC COMPOSITION COMPRISING AT LEAST ONE FLAVANOL-TYPE COMPOUND” (priority 2014, published 2018)
